# Experimental data taken from ChEMBL document CHEMBL5725658, “Spirocycle compounds and methods of making and using same” (2018).
# Biological target: T1, Fatty-acid amide hydrolase 1 (Mus musculus, UniProt O08914)
# T1 sequence (O08914 whole entry): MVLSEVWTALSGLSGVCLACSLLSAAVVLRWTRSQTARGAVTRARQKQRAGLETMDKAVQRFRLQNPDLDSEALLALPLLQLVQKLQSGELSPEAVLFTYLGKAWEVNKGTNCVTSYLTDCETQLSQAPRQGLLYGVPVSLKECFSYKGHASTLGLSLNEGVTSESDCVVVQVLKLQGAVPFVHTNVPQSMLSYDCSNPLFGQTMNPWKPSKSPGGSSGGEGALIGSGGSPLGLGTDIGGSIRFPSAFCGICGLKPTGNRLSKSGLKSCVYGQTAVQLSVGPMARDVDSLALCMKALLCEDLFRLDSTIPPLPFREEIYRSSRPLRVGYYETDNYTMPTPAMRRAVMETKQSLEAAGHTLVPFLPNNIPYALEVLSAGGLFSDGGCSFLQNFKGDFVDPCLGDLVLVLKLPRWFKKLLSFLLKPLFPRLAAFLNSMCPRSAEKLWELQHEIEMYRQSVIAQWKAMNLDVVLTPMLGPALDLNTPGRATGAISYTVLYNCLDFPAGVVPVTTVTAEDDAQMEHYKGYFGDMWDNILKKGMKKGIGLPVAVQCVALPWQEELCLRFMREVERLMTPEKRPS
# Assay: In Vitro Competitive Activity-Based Protein Profiling: Proteomes (mouse brain membrane fraction or cell lysates) (50 μL, 1.0 mg/mL total protein concentration) were preincubated with varying concentrations of inhibitors at 37° C. After 30 min, FP¿Rh (1.0 μL, 50 μM in DMSO) was added and the mixture was incubated for another 30 min at 37° C. Reactions were quenched with SDS loading buffer (50 μL-4×) and run on SDS-PAGE. Following gel imaging, serine hydrolase activity was determined by measuring fluorescent intensity of gel bands corresponding to MAGL, ABHD6 and FAAH using ImageJ 1.43u software.
structure (smiles),measurement,value
O=C(OC(C(F)(F)F)C(F)(F)F)N1CCC2(CCCN2Cc2ccc(OCCN3CCOCC3)cc2)CC1,IC50,> 1000 nM
